In patent publication US20150051295A1, “USE OF PROPANOL AND PROPENOL DERIVATIVES AS ANTIOXIDANTS” (MERCK PATENT GmbH, priority 2011, published 2015):

Assay: Determination of the reducing (=antioxidative) property: TLC plate chromatographed, then sprayed with potassium permanganate solution
Conditions: substance in MTB ether on TLC silica gel 60F254 plate, heptane/ethyl acetate 2/1, then sprayed with freshly prepared KMnO4/NaOH solution
Description: Determination of the reducing (=antioxidative) property of 3-(4-tert-butyl phenyl)-1-(4-methoxyphenyl)prop-2-en-1-ol (substance 1a) and of 3-(4-tert-butylphenyl)-1-(4-methoxyphenyl)propan-1-ol (substance 2a): a little substance is dissolved in MTB ether and applied to a TLC plate (TLC silica gel 60F254 plate). The plate is chromatographed with heptane/ethyl acetate 2/1. […] The Rf values are at 0.61 (substance 2a) and 0.35 (substance 1a).

Row | SMILES | reducing (=antioxidative) property: decolourisation of potassium permanganate spray solution at substance spots
1 | COc1ccc(C(O)/C=C/c2ccc(C(C)(C)C)cc2)cc1 (centres unmarked) [substance 1a, 3-(4-tert-butylphenyl)-1-(4-methoxyphenyl)prop-2-en-1-ol] | decolorises at the substance spots
2 | COc1ccc(C(O)CCc2ccc(C(C)(C)C)cc2)cc1 (centres unmarked) [substance 2a, 3-(4-tert-butylphenyl)-1-(4-methoxyphenyl)propan-1-ol] | decolorises at the substance spots
